Experimental findings from patent US7807703B2, “Substituted aryl ketones” (Bayer CropScience AG, priority 2002, dated 2010) are described below.

Structures are written as SMILES.

The first series in a line: log P determination by reversed-phase HPLC (EEC Directive 79/831 Annex V.A8; acidic or neutral mobile phase). Particulars: HPLC reversed-phase C18, 43° C., acidic range: 0.1% aqueous phosphoric acid, acetonitrile (marked a)). It counts as physicochemical. In outline: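 Reversed-phase C18 HPLC per EEC Directive 79/831 Annex V.A8 at 43° C. Linear gradient of 10% to 90% acetonitrile, run against 0.1% aqueous phosphoric acid for the acidic range (a) or 0.01 molar aqueous phosphate buffer for the neutral range (b).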
As to `CCn1ncc(C(=O)c2ccc(S(C)(=O)=O)c(CNOCc3ccccc3)c2Cl)c1O` [Example 200], the logP entry was “(I-2) logP = 2.31^a)”.

The same series, now with this note: HPLC reversed-phase C18, 43° C.; acidic range: 0.1% aqueous phosphoric acid, acetonitrile gradient (marked a)).
On to `CCS(=O)(=O)NCCOc1c(Br)ccc(C(=O)C2C(=O)CCCC2=O)c1Br` [Example 20], for which the logP entry is reported as “logP = 2.45^a)”.

With `CCn1ncc(C(=O)c2ccc(Cl)c(CNOC)c2Cl)c1O` [Example 130], the logP result is given as “logP = 1.68^a)”.

With `C=CCN(Cc1c(S(C)(=O)=O)ccc(C(=O)C2C(=O)CCCC2=O)c1Cl)OC` [Example 158], the logP entry is “(I-2) logP = 3.01^a)”.

Consider `CCn1ncc(C(=O)c2ccc(Cl)c(OCCNS(=O)(=O)c3cccs3)c2Cl)c1O` [Example 34], for which the logP result is listed as “(I-2) logP = 2.41^a)”.

Consider `O=C1CCCC(=O)C1C(=O)c1ccc(Cl)c(OCCNS(=O)(=O)CCl)c1Cl` [Example 7], for which the logP result is “logP = 2.57^a)”.

Consider `CCCS(=O)(=O)NCCOc1c(Cl)ccc(C(=O)C2C(=O)CCCC2=O)c1Cl` [Example 168], for which the logP result is reported as “logP = 2.67^a)”.

In the case of `CCONCc1c(S(C)(=O)=O)ccc(C(=O)c2cnn(CC)c2O)c1Cl` [Example 136], the logP entry is given as “logP = 1.58^a)”.

Take `CCN(Cc1c(S(C)(=O)=O)ccc(C(=O)C2C(=O)CCCC2=O)c1Cl)OC` [Example 150]: the logP entry is given as “logP = 2.87^a)”.

The same series, now with this note: HPLC, reversed-phase C18, 43° C.; acidic range a): 0.1% aqueous phosphoric acid, acetonitrile, linear gradient 10% to 90% acetonitrile.
For the compound `CCON(Cc1c(S(C)(=O)=O)ccc(C(=O)c2cnn(C)c2O)c1Cl)CC1CCOC1` (stereo not drawn) [Example 427], the logP result was “(I-2) logP = 1.90^a)”.

Take `CCn1ncc(C(=O)c2ccc(S(C)(=O)=O)c(CN(OC)C3CCCOC3)c2Cl)c1O` (stereo not drawn) [Example 412]: the logP result is listed as “(I-2) logP = 2.01^a)”.

As for `CN(Cc1c(S(C)(=O)=O)ccc(C(=O)C2C(=O)CCCC2=O)c1Cl)OCC1CC1` [Example 444], the logP entry was “(I-2) logP = 3.14^a)”.

Regarding `CCN(Cc1c(S(C)(=O)=O)ccc(C(=O)c2cnn(C)c2O)c1Cl)OC` [Example 369], the logP entry was “logP = 1.84^a)”.

Regarding `CCn1ncc(C(=O)c2ccc(S(C)(=O)=O)c(CN(C)OCCOC)c2Cl)c1O` [Example 431], the logP result is given as “(I-2) logP = 1.80^a)”.

For the compound `CCN(Cc1c(Cl)ccc(C(=O)C2C(=O)CC(C)CC2=O)c1OC)S(C)(=O)=O` (stereo not drawn) [Example 474], the logP result is on record as “(I-2) logP = 2.81^a)”.

Consider `CCONCc1c(Cl)ccc(C(=O)c2cnn(C)c2O)c1Cl` [Example 450], for which the logP result was “logP = 1.67^a)”.

Take `CCN(Cc1c(S(C)(=O)=O)ccc(C(=O)c2cnn(CC)c2O)c1Cl)OC(C)C` [Example 404]: the logP result was “logP = 2.79^a)”.

On to `CN(Cc1c(S(C)(=O)=O)ccc(C(=O)c2cnn(C)c2O)c1Cl)S(C)(=O)=O` [Example 453], for which the logP entry is reported as “logP = 0.99^a)”.

Take `CCn1ncc(C(=O)c2ccc(S(C)(=O)=O)c(CN(C)S(C)(=O)=O)c2Cl)c1O` [Example 452]: the logP result is “logP = 1.25^a)”.

In the case of `CCN(Cc1c(S(C)(=O)=O)ccc(C(=O)C2C(=O)CCC(C)(C)C2=O)c1Cl)OC(C)C` (stereo not drawn) [Example 403], the logP entry is “(I-2) logP = 4.36^a)”.

For the compound `CCN(Cc1c(S(C)(=O)=O)ccc(C(=O)c2c(C)nn(C)c2O)c1Cl)OC` [Example 407], the logP result is “(I-2) logP = 1.76^a)”.

As for `CCON(Cc1c(S(C)(=O)=O)ccc(C(=O)c2cnn(CC)c2O)c1Cl)CC1CCOC1` (stereo not drawn) [Example 416], the logP result was “(I-2) logP = 2.11^a)”.

As to `CCON(C)Cc1c(S(C)(=O)=O)ccc(C(=O)c2cnn(C)c2O)c1Cl` [Example 414], the logP entry is “logP = 1.71^a)”.

With `CCn1ncc(C(=O)c2ccc(Cl)c(OCCNS(=O)(=O)CC)c2C)c1O` [Example 358], the logP result is reported as “logP = 2.03^a)”.

Consider `CON(CC(=O)N(C)C)Cc1c(S(C)(=O)=O)ccc(C(=O)C2C(=O)CCC(C)(C)C2=O)c1Cl` (stereo not drawn) [Example 419], for which the logP result is recorded as “(I-2) logP = 2.58^a)”.

`CCn1ncc(C(=O)c2ccc(Br)c(OCCNS(C)(=O)=O)c2C)c1O` [Example 365]: the logP entry is “logP = 1.89^a)”.

As for `COc1c(C(=O)C2C(=O)CCC(C)(C)C2=O)ccc(Cl)c1CN(C)S(C)(=O)=O` (stereo not drawn) [Example 473], the logP entry was “(I-2) logP = 2.92^a)”.

Regarding `CN(Cc1c(Cl)ccc(C(=O)C2C(=O)CCCC2=O)c1Cl)S(C)(=O)=O` [Example 458], the logP entry is “logP = 2.32^a)”.

Regarding `CC(C)ON(Cc1c(S(C)(=O)=O)ccc(C(=O)C2C(=O)CCC(C)(C)C2=O)c1Cl)C(C)C` (stereo not drawn) [Example 399], the logP result was “(I-2) logP = 4.80^a)”.

As to `CN(Cc1c(Cl)ccc(C(=O)C2C(=O)CCC(C)(C)C2=O)c1Cl)S(C)(=O)=O` (stereo not drawn) [Example 459], the logP entry is listed as “(I-2) logP = 3.01^a)”.

On to `CCn1ncc(C(=O)c2ccc(S(C)(=O)=O)c(CN(OC)C(C)C3CC3)c2Cl)c1O` (stereo not drawn) [Example 373], for which the logP entry is listed as “(I-2) logP = 2.94^a)”.

Take `CCn1ncc(C(=O)c2ccc(S(C)(=O)=O)c(CN(OC)C3CCCC3)c2Cl)c1O` [Example 379]: the logP result is reported as “(I-2) logP = 2.99^a)”.

As to `CCON(CC)Cc1c(S(C)(=O)=O)ccc(C(=O)C2C(=O)CCCC2=O)c1Cl` [Example 390], the logP entry is recorded as “logP = 3.22^a)”.

Turning to `CCONCc1c(Cl)ccc(C(=O)c2cnn(CC)c2O)c1OC` [Example 448], the logP entry is on record as “logP = 3.60^a)”.

As to `CCN(Cc1c(Cl)ccc(C(=O)C2C(=O)CCCC2=O)c1OC)OC` [Example 483], the logP entry was “logP = 3.19^a)”.

As for `CCn1ncc(C(=O)c2ccc(Cl)c(CN(C)S(C)(=O)=O)c2Cl)c1O` [Example 456], the logP result is reported as “logP = 1.72^a)”.

As for `Cc1c(C(=O)C2C(=O)CCCC2=O)ccc(Cl)c1OCCNS(C)(=O)=O` [Example 361], the logP result is “logP = 2.13^a)”.

Staying with this series, now noted: HPLC, reversed-phase C 18, 43° C.; acidic range: 0.1% aqueous phosphoric acid, acetonitrile (marked a) or acidic).
On to `CCS(=O)(=O)NCCOc1c(Br)ccc(C(=O)OC)c1C` [VIII-29], for which the “log P (acidic)” value was “logPacidic = 2.46”.

Consider `C=CCN(Cc1c(S(C)(=O)=O)ccc(C(=O)OC)c1Cl)S(C)(=O)=O` [VIII-73], for which the “log P (acidic)” value is reported as “logPacidic = 2.03”.

Take `CCS(=O)(=O)NCCOc1c(Cl)ccc(C(=O)OC)c1C` [VIII-27]: the “log P (acidic)” value is “logPacidic = 2.37”.

For the compound `COC(=O)c1ccc(S(C)(=O)=O)c(CN(Cc2ccccc2)OC)c1Cl` [VIII-24], the “log P (acidic)” value was “logPacidic = 3.42”.

For `COC(=O)c1ccc(S(C)(=O)=O)c(CN(OC)C(=O)C2CC2)c1Cl` [VIII-52], the “log P (acidic)” value is recorded as “logPacidic = 2.02”.

Consider `CCN(Cc1c(S(C)(=O)=O)ccc(C(=O)OC)c1Cl)S(C)(=O)=O` [VIII-72], for which the “log P (acidic)” value is “logPacidic = 1.88”.

As to `COC(=O)c1ccc(S(C)(=O)=O)c(CN(OC)C(C)C)c1Cl` [VIII-25], the “log P (acidic)” value is “logPacidic = 3.13”.

As to `COC(=O)c1ccc(S(C)(=O)=O)c(CN(CC2CC2)OC)c1Cl` [VIII-34], the “log P (acidic)” value is recorded as “logPacidic = 3.18”.

Consider `COC(=O)c1ccc(S(C)(=O)=O)c(CN(OC)C(=O)C(C)C)c1Cl` [VIII-51], for which the “log P (acidic)” value is listed as “logPacidic = 2.21”.

For the compound `COC(=O)c1ccc(S(C)(=O)=O)c(CN(OC)C(=O)C(F)(F)F)c1Cl` [VIII-50], the “log P (acidic)” value was “logPacidic = 2.60”.

Regarding `COC(=O)c1ccc(Br)c(OCCNS(C)(=O)=O)c1Br` [VIII-32], the “log P (acidic)” value is “logPacidic = 2.13”.

Regarding `COC(=O)c1ccc(S(C)(=O)=O)c(CN(OC)C2CCCOC2)c1Cl` (stereo not drawn) [VIII-59], the “log P (acidic)” value is given as “logPacidic = 2.55”.

`CCN(Cc1c(Cl)ccc(C(=O)OC)c1OC)S(C)(=O)=O` [VIII-71]: the “log P (acidic)” value was “logPacidic = 2.38”.

As to `CCON(Cc1c(S(C)(=O)=O)ccc(C(=O)OC)c1Cl)CC1CCOC1` (stereo not drawn) [VIII-55], the “log P (acidic)” value is “logPacidic = 2.60”.

On to `COC(=O)c1ccc(S(C)(=O)=O)c(CN(OC)C(C)=O)c1Cl` [VIII-39], for which the “log P (acidic)” value is recorded as “logPacidic = 1.58”.

Staying with this series, now noted: HPLC, reversed-phase C 18, 43° C.; mobile phase range not marked.
As for `CCONCc1c(Cl)ccc(C(=O)OC)c1Cl` [VIII-7], the “log P” value is recorded as “logP = 2.77”.

Turning to `CON(Cc1c(S(C)(=O)=O)ccc(C(=O)C2C(=O)CCCC2=O)c1Cl)C(C)C` [Example 343], the “logP (HPLC, mobile phase not marked)” value was “(I-2) 3.26”.

Regarding `CCn1nc(C)c(C(=O)c2ccc(S(C)(=O)=O)c(CN(C)OC)c2Cl)c1O` [Example 307], the “logP (HPLC, mobile phase not marked)” value amounted to 1.45.

As for `CONCc1c(S(C)(=O)=O)ccc(C(=O)OC)c1Cl` [VIII-10], the “log P” value is on record as “logP = 1.69”.

On to `CCN(Cc1c(S(C)(=O)=O)ccc(C(=O)c2cnn(CC)c2O)c1Cl)OC` [Example 309], for which the “logP (HPLC, mobile phase not marked)” value turned out to be 2.16.

For `CCON(CC)Cc1c(S(C)(=O)=O)ccc(C(=O)OC)c1Cl` [VIII-12], the “log P” value is “logP = 3.06”.

Take `CCn1ncc(C(=O)c2ccc(S(C)(=O)=O)c(CN(OC)C(C)C)c2Cl)c1O` [Example 344]: the “logP (HPLC, mobile phase not marked)” value turned out to be 2.52.

Turning to `CON(Cc1c(S(C)(=O)=O)ccc(C(=O)c2cnn(C)c2O)c1Cl)C(C)C` [Example 345], the “logP (HPLC, mobile phase not marked)” value came to 2.16.

As to `CCN(Cc1c(Cl)ccc(C(=O)OC)c1Cl)OC` [VIII-9], the “log P” value is listed as “logP = 3.72”.

Still in this series, the particulars now being: reversed-phase C18 HPLC column; HPLC, reversed-phase C 18, 43° C.; acidic range: 0.1% aqueous phosphoric acid, acetonitrile (marked a) or acidic); read-out: log P (acidic).
Turning to `CON(Cc1c(S(C)(=O)=O)ccc(C(=O)O)c1Cl)C(C)C` [II-3, 2-chloro-4-methylsulphonyl-3-(N-methoxy-N-(1-methylethyl)aminomethyl)benzoic acid], the chromatographic logP amounted to 2.09.

As for `COC(=O)c1ccc(S(C)(=O)=O)c(CN(OC)C(C)C)c1Cl` [VIII-3], the chromatographic logP stood at 3.13.
